Measurements from patent US4354039A, “Chlorocitric acids” (Hoffmann-La Roche Inc., priority 1981, dated 1982).
Structures can show the parent of a compound that is named as a salt. Where two headings read alike, the source gives them in different places.

How the values were obtained:
[1] = Food intake in dogs, pyramiding oral doses (Examples 26 and 27); assay type: in vivo, beagle dogs
Method: Twelve beagle dogs of both sexes weighing 7.6-12.2 kg were used for this test. The test compounds were contained in gelatin capsules for oral administration to two dogs of each sex. The animals were weighed and food consumption calculated daily excluding weekends throughout the test period. Each animal received 800 grams of diet daily consisting of 400 grams of Wayne pellet dog food mixed with 400 ml distilled water. The animals received pyramiding oral doses of the test compound over the three week period. On Monday and Tuesday of the first week the animals were weighed and food consumption was recorded (control). […] Doses of 30, 100 and 300 mg/kg were administered on Monday, Wednesday and Friday respectively during the second week. A final dose of 1000 mg/kg was administered on Monday of the third week.
Food intake was determined by the procedure at pyramiding doses described in EXAMPLE 26.

[2] = Comparative anorectic activity, food consumption of meal-fed rats (Example 13); assay type: in vivo, Charles River female rats; settings: 3 hr meal
Method: Charles River female rats (Charles River Breeding Laboratories, Wilmington, Mass.), weighing 150 to 175 g, were individually housed in wire-bottomed cages in a temperature-regulated (22° C.) light-controlled room (12 hr light, 6 a.m. to 6 p.m. and 12 hr dark, 6 p.m. to 6 a.m.). Animals were fasted 48 hr, then meal-fed the 70% glucose diet described by A. C. Sullivan, et al., J. Nutrition, 101, 265 (1971) from 8 to 11 a.m. Following 5 to 13 days alimentation on the meal-feeding regimen, rats were dosed with the appropriate compounds orally by intubation 1/2 hr before the 3 hr meal. Food cups were weighed immediately after the meal. The control group consists of 31 rats while each drug treated group consists of 5 to 12 rats.
The G-70 diet consisted of 70% glucose, 23% vitamin-free casein, 5% Phillips and Hart salt mixture IV, 1% corn oil, 1% complete vitamin mixture, and 40 g/kg cellulose. To ensure complete uniformity, all diets were mixed with a twen-shell dry blender equipped with an itensifier bar (Patterson-Kelley Co., East Stroudsburg, Pa.).

[3] = Effect on stomach emptying, [14C] glucose load (Example 25); assay type: in vivo, Rats; settings: for Serum, % of control / Stomach Contents, % of control: 0.33 mmoles/kg oral, 60 min after [14C] glucose load
Method: Rats were trained to consume a 3 hr 70% glucose meal from 8 a.m. to 11 a.m. daily. On the experimental day, compounds were administered orally by intubation 30 min before a [^14 C] glucose load was given also by intubation. […] Sixty minutes later the rats were killed by decapitation; blood and stomachs were collected on ice.
Data are expressed as follows: dpm×10^3 per ml of serum and dpm×10^3 per stomach.

isolated rat hepatocytes = assay: Fatty acid and cholesterol synthesis and CO2 production in isolated hepatocytes (Example 23); assay type: cell-based, Female Charles River rats; settings: for activity at 2000 µM: Rattus norvegicus, Hepatocyte, 1 h, 2 mM, 60 min, 37° C.
Method: Female Charles River rats were fasted 48 hr, then meal-fed a 1% corn oil, 70% glucose diet for 7 to 14 days from 8 to 11 a.m. The isolated rat hepatocytes were prepared by perfusing the liver in situ. The hepatocytes were incubated in an oscillating water bath at 37° C. for 60 min. […] All incubations were done in triplicate and all experiments were repeated at least twice. […] The contents of the center well were transferred to scintillation counting fluid and ^14 CO2 content was determined. […] The media was then acidified, extracted with hexane, and the extract counted (to determine the rate of lipogenesis). The conversion of ^3 H2 O and [^14 C]alanine into fatty acids or sterols was determined in a PDS/3, Mark II liquid scintillation counting system.

[4] = Effect of stereoisomers on food consumption of meal-fed rats (Example 14); assay type: in vivo, Charles River female rats
Method: Animals were fasted 48 hr, then meal-fed the 70% glucose diet described by A. C. […] Following 5 to 12 days alimentation on the meal-feeding regimen, rats were dosed with the appropriate compounds orally by intubation 1/2 hr before the 3 hr meal. Food cups were weighed immediately after the meal. The control group consisted of 5 to 10 rats, while the experimental group consisted of 4 to 6 rats.

[5] = Anorectic activities of stereoisomers, 3-day food consumption and body weight gain (Example 16); assay type: in vivo, Charles River female rats; settings: 1.32 mmoles/kg oral, 3 days
Method: Charles River female rats (Charles River Breeding Laboratories, Wilmington, Mass.), weighing 196 to 210 g, were individually housed in wire-bottomed cages in a temperature-regulated (22° C.) light-controlled room (12 hr light, 6 a.m. to 6 p.m. and 12 hr dark, 6 p.m. to 6 a.m.). Animals were fasted 48 hr, then meal-fed a 70% glucose diet from 8 to 11 a.m. Following 5 to 12 days alimentation on the meal-feeding regimen, rats were dosed with the appropriate compounds orally by intubation 1/2 hr before the 3 hr meal for 3 days. The total food consumption and body weight gained during the 3 day period were determined. The control group consisted of 16 rats, while the experimental group consists of 8 rats.

[6] = Anorectic effect in 8 hour meal-fed Zucker rats (Example 17); assay type: in vivo, lean (Fa/-) and obese (fa/fa)
Method: Lean (Fa/-) Zucker rats and obese (fa/fa) Zucker rats of both sexes were individually housed in wire-bottomed cages in a temperature-regulated (22° C.) light-controlled room (12 hr light, 6 a.m. to 6 p.m. and 12 hr dark, 6 p.m. to 6 a.m.). The animals were fed a high carbohydrate (70% glucose) diet ad libitum for 13 days, dosed with the indicated compounds by oral intubation for 9 days and allowed to recover for 3 days. The animals were then meal fed from 8 a.m. to 4 p.m. for a period of 5 days, following which they were continued on the same meal schedule for an additional 6 days. During the 6-day period, the animals were administered the indicated compounds by oral intubation at 8 a.m. and 12 p.m. Food cups were weighed immediately after the meal.

[7] = test day 8, dose 100 mg/kg oral
[8] = test day 10, dose 300 mg/kg oral
[9] = test day 13, dose 1000 mg/kg oral

Structure (SMILES): O=C(O)C[C@@](O)(C(=O)O)[C@@H](Cl)C(=O)O (relative stereo) [(±)-threo-Chlorocitric acid]
- Food Consumption ([1]; test day 1, dose 3 mg/kg oral): 616 ± 79 g
- Food Consumption, % of control ([1]; test day 1, dose 3 mg/kg oral): 129 % of control
- Food Consumption ([1]; test day 2, no dose): 392 ± 140 g
- Food Consumption, % of control ([1]; test day 2, no dose): 82 % of control
- Food Consumption ([1]; test day 3, dose 10 mg/kg oral): 460 ± 136 g
- Food Consumption, % of control ([1]; test day 3, dose 10 mg/kg oral): 96 % of control
- Food Consumption ([1]; test day 6, dose 30 mg/kg oral): 511 ± 104 g
- Food Consumption, % of control ([1]; test day 6, dose 30 mg/kg oral): 107 % of control
- Food Consumption, % of control ([1]; test day 7, no dose): 100 % of control
- Food Consumption [1, 7]: 299 ± 176 g
- Food Consumption, % of control [1, 7]: 62 % of control
- Food Consumption ([1]; test day 9, no dose): 492 ± 110 g
- Food Consumption, % of control ([1]; test day 9, no dose): 103 % of control
- Food Consumption [1, 8]: 316 ± 109 g
- Food Consumption, % of control [1, 8]: 66 % of control
- Food Consumption [1, 9]: 164 ± 61 g
- Food Consumption, % of control [1, 9]: 34 % of control
- Food Consumption ([1]; test day 14, no dose): 560 ± 136 g
- Food Consumption, % of control ([1]; test day 14, no dose): 117 % of control
- Food Consumption ([1]; test day 15, no dose): 543 ± 92 g
- Food Consumption, % of control ([1]; test day 15, no dose): 113 % of control
- Food Consumption ([1]; test day 16, no dose): 624 ± 88 g
- Food Consumption, % of control ([1]; test day 16, no dose): 130 % of control
- Food Consumption ([1]; test day 17, no dose): 645 ± 93 g
- Food Consumption, % of control ([1]; test day 17, no dose): 135 % of control
- Food Consumption ([1]; test day 21, no dose): 561 ± 83 g
- Food Consumption, % of control ([1]; test day 21, no dose): 117 % of control
- Food Consumption ([1]; test day 22, no dose): 649 ± 91 g
- Food Consumption, % of control ([1]; test day 22, no dose): 135 % of control
- Food Consumption ([1]; test day 23, no dose): 533 ± 118 g
- Food Consumption, % of control ([1]; test day 23, no dose): 111 % of control
- Food Consumption ([1]; test day 24, no dose): 477 ± 114 g
- Food Consumption, % of control ([1]; test day 24, no dose): 100 % of control
- Food Consumption ([1]; test day 27, no dose): 518 ± 139 g
- Food Consumption, % of control ([1]; test day 27, no dose): 108 % of control
- Food Consumption ([1]; test day 28, no dose): 663 ± 137 g
- Food Consumption, % of control ([1]; test day 28, no dose): 138 % of control
- Food Consumption, % of control ([2]; 0.08 mmoles/kg oral): 57 % of control
- Food Consumption, % of control ([2]; 0.17 mmoles/kg oral): 61 % of control
- Food Consumption, % of control ([2]; 0.33 mmoles/kg oral): 51 % of control
- Food Consumption, % of control ([2]; 0.66 mmoles/kg oral): 35 % of control
- Food Consumption, % of control ([2]; 1.32 mmoles/kg oral): 28 % of control
- Food Consumption, % of control ([2]; 2.63 mmoles/kg oral): 34 % of control

Structure (SMILES): O=C(O)C[C@@](O)(C(=O)O)[C@H](O)C(=O)O [Trisodium (-)-threo-hydroxycitrate, reference compound]
- Serum, % of control [3]: 79 % of control
- Stomach Contents, % of control [3]: 223 % of control
- activity at 2000 µM (isolated rat hepatocytes; read-out: CO2 Production, [14C]alanine converted): 103%
- activity at 2000 µM (isolated rat hepatocytes; read-out: Cholesterol Synthesis, 3H2O converted): 60%
- activity at 2000 µM (isolated rat hepatocytes; read-out: Cholesterol Synthesis, [14C]alanine converted): 18%
- activity at 2000 µM (isolated rat hepatocytes; read-out: Fatty Acid Synthesis, 3H2O converted): 54%
- activity at 2000 µM (isolated rat hepatocytes; read-out: Fatty Acid Synthesis, [14C]alanine converted): 30%
- Food Consumption, % of control ([2]; 0.33 mmoles/kg oral): 103 % of control
- Food Consumption, % of control ([2]; 0.66 mmoles/kg oral): 80 % of control
- Food Consumption, % of control ([2]; 1.32 mmoles/kg oral): 88 % of control
- Food Consumption, % of control ([2]; 2.63 mmoles/kg oral): 79 % of control

Structure (SMILES): O=C(O)CC(O)(C(=O)O)C(O)C(=O)O (single isomer, unassigned) [hydroxycitric acid, reference compound]
- gastric emptying ([3]; in words, comparable doses): delayed gastric emptying
- inhibition of lipid (fatty acid) and cholesterol syntheses (isolated rat hepatocytes; in words): inhibition of fatty acid and cholesterol syntheses

Structure (SMILES): O=C(O)C[C@@](O)(C(=O)O)[C@H](Cl)C(=O)O [(+)-erythro-Chlorocitric acid]
- Serum, % of control [3]: 88 % of control
- Stomach Contents, % of control [3]: 207 % of control
- Food Consumption, % of control ([4]; 0.66 mmoles/kg oral): 99 % of control
- Food Consumption, % of control ([4]; 2.63 mmoles/kg oral): 78 % of control
- 3-Day Body Weight Gain, % of initial body weight [5]: -0.7 % of initial body weight
- 3-Day Food Consumption, % of control [5]: 111 % of control

Structure (SMILES): O=C(O)CC(O)(CC(=O)O)C(=O)O [Citric Acid]
- Food Consumption, % of control ([4]; 2.63 mmoles/kg oral): 94 % of control
- Daily Food Consumption ([6]; Fa/-- lean, 1.32 mmoles/kg group, pretreatment day 0): 11.0 ± 0.8 g
- Daily Food Consumption ([6]; Fa/-- lean, 1.32 mmoles/kg oral, day 1): 10.6 ± 1.2 g
- Daily Food Consumption ([6]; Fa/-- lean, 1.32 mmoles/kg oral, day 2): 10.0 ± 1.2 g
- Daily Food Consumption ([6]; Fa/-- lean, 1.32 mmoles/kg oral, day 3): 12.7 ± 1.0 g
- Daily Food Consumption ([6]; Fa/-- lean, 1.32 mmoles/kg oral, day 4): 11.9 ± 0.7 g
- Daily Food Consumption ([6]; Fa/-- lean, 1.32 mmoles/kg oral, day 5): 12.6 g
- Daily Food Consumption ([6]; Fa/-- lean, 1.32 mmoles/kg oral, day 6): 13.1 ± 0.9 g
- Daily Food Consumption ([6]; fa/fa obese, 1.32 mmoles/kg group, pretreatment day 0): 13.4 ± 0.8 g
- Daily Food Consumption ([6]; fa/fa obese, 1.32 mmoles/kg oral, day 1): 11.4 ± 0.8 g
- Daily Food Consumption ([6]; fa/fa obese, 1.32 mmoles/kg oral, day 2): 13.8 ± 1.2 g
- Daily Food Consumption ([6]; fa/fa obese, 1.32 mmoles/kg oral, day 3): 16.5 ± 1.0 g
- Daily Food Consumption ([6]; fa/fa obese, 1.32 mmoles/kg oral, day 4): 14.8 ± 0.9 g
- Daily Food Consumption ([6]; fa/fa obese, 1.32 mmoles/kg oral, day 6): 16.0 ± 1.0 g

Structure (SMILES): O=C(O)C[C@](O)(C(=O)O)[C@@H](Cl)C(=O)O [(-)-erythro-Chlorocitric acid]
- Serum, % of control [3]: 90 % of control
- Stomach Contents, % of control [3]: 169 % of control
- Food Consumption, % of control ([4]; 0.66 mmoles/kg oral): 85 % of control
- Food Consumption, % of control ([4]; 2.63 mmoles/kg oral): 53 % of control
- 3-Day Body Weight Gain, % of initial body weight [5]: -2.4 % of initial body weight
- 3-Day Food Consumption, % of control [5]: 86 % of control

Structure (SMILES): O=C(O)CC(O)(CC(=O)O)C(=O)O [Trisodium Citrate, reference compound]
- Serum, % of control [3]: 112 % of control
- Stomach Contents, % of control [3]: 133 % of control
